These are literature values, as cited in patent US11197931B2, “Liquid injectable copolymer” (Queen's University at Kingston, priority 2017, dated 2021).

The conditions of the data set: 25° C.

Molecules are shown by their SMILES.

With `C[C@]12C=CC(=O)C=C1CC[C@H]1[C@@H]3C[C@@H](O)[C@](O)(C(=O)CO)[C@@]3(C)C[C@H](O)[C@@]12F` [triamcinolone], the saturation concentration is recorded as 80 mg/L.
